Legend:
cutaneous tissue = conditions: in vivo; cited from earlier work
[1] = Light sensitivity of the drug in aqueous solution (chromatography, fluorescence spectra); type: physicochemical
psoriasis lesions = experiment: Treatment of psoriasis patients, 1% 3-CPs ointment plus 365 nm UV; type: in vivo; conditions: 1% ointment
Method: The effectiveness of thus-obtained 3-CPs was tested on 10 patients having ordinary psoriasis covering from 200 to 400 cm^2 of skin.
Preparation of 1% 3-CPs ointment:
1 g of 3-CPs was ground to a very fine powder and then dispersed in 70 g of "HYDROCERINE" (a commercially-available product manufactured by ROC) at 70° C. 29 ml of water were added at 70° C. in order to obtain an aqueous emulsion in oil.
The irradiation dose at 365 nm UV was of about 5 J/cm^2 per unit treatment and administered using the usual PUVA therapy set-up.

[2] = tested on: skin of homozygote albino mice strain XVII nc/Z; experiment: Chronic topical application on the ears of mice plus 365 nm UV irradiation (tumors, skin reactions); type: in vivo
Method: The experiments were effected on groups of 40 mice, male and female.
After 115 topical applications of psoralen, followed each time by 10 minutes of irradiation (cumulative doses of 2.07×10^6 J/m^2), 100% of the animals developed a tumor; 50% having tumors on two ears.
(§1) 3-CPs was also tested intraperitoneally (36 injections of 0.4 mg each over a period of 7 weeks).
In all these experiments the U.V. lamp was of the type of HPW 125 W, manufactured by Philips.

Saccharomyces cerevisiae = experiment: Uptake and removal of the drug in yeast (incubation time, washing); type: cell-based
Method: B--Effects of 365 nm light alone or 3-CPs, uptake and removal of the drug.
Since high doses of 365 nm light are needed to induce a killing effect in Saccharomyces cells in the presence of 3-CPs, the effects of 365 nm light alone were measured for doses up to 7500 J/m^2. It was established that, in the range of doses used for the biological experiments, there was only a small lethal effect of 365 nm light alone. Taking into account the standard errors of the surviving fraction (±10%) and the fact that part of the light energy is absorbed by the drug itself, the effect of 365 nm light alone has been neglected in the experiments.

[3] = Intraperitoneal toxicity in mice; type: in vivo; conditions: i.p., 36 injections of 0.4 mg over 7 weeks
Method: as §1

lymphocytes = conditions: therapeutic treatment; cited from earlier work
skin [4] = experiment: Erythema, skin injury and tanning on skin of patients; type: in vivo; conditions: compared with 8-MOP
Description: In contrast, it has now been discovered that the mono-functional derivatives of formula I provoke absolutely no erythema, neither immediate nor postponed. No skin injury, neither macro- nor microscopic, was observed on patients. It will be readily apparent to men skilled in the art that this property is a very unique one for compounds of the psoralen family. […] Thus, undesirable cosmetic side effects appear to be absent. Consequently, these compounds are of great interest since, in contrast to 8-MOP, they permit subsequent treatment at short-time intervals for example twice a day over prolonged periods of time without any sun-burnlike injury to the skin.

mice = conditions: hairless mice; cited from earlier work
skin [5] = conditions: short treatment intervals; cited from earlier work

Structure (SMILES): CCOC(=O)c1cc2cc3ccoc3cc2oc1=O [Example 3-CPs, 3-carboethoxypsoralen]
- photosensitizing activity (cutaneous tissue): completely inactive
- light sensitivity [1]: light sensitive
- photoproduct ([1]; illuminated aqueous solutions): highly fluorescent photoproduct with the characteristics of 4',5'-dihydropsoralen
- erythema or cutaneous inflammation (psoriasis lesions): no erythema or cutaneous inflammation
- speed of action compared with 8-MOP (psoriasis lesions): slower than that of 8-MOP
- erythema, cutaneous inflammation, tumor ([2]; 115 applications on two ears, 30 minutes rest, 10 minutes irradiation): neither erythema nor cutaneous inflammation nor any tumor
- mortality ([2]; 115 applications, 450 days of observation): No animal died
- macroscopic or microscopic reaction ([2]; 450 days of observation): Neither macroscopic nor microscopic reaction was observed
- binding in the dark (Saccharomyces cerevisiae): very loosely bound in the dark
- effect after one minute incubation (Saccharomyces cerevisiae; 10 μg/ml, wild-type and rad9-4): about the maximum effect
- killing and "petite" induction vs incubation time before irradiation (Saccharomyces cerevisiae; 10 μg/ml, wild-type and rad9-4, constant 365 nm dose): independent of incubation time
- uptake and washing out compared with 8-MOP (Saccharomyces cerevisiae; Saccharomyces): taken up and washed out as readily as 8-MOP
- sensitizing effect after washing (Saccharomyces cerevisiae; doses of 365 nm light used): no sensitizing effect after washing
- survival [3]: All the animals remained alive
- weight and signs of toxicity [3]: without any decrease in weight or other sign of toxicity

Structure (SMILES): COc1c2occc2cc2ccc(=O)oc12 [Example 8-MOP, 8-methoxypsoralen, reference compound]
- lymphocytes in circulating blood (lymphocytes): causes a decrease of the lymphocytes in circulating blood
- tanning effect (skin [4]): strong tanning effect
- cancerogenic power in combination with U.V. radiation (mice): high cancerogenic power
- erythemal reactions in the skin (skin [5]): can cause violent erythemal reactions in the skin
